target: Human recombinant PDE4 (Genbank accession no NM—006203) (Homo sapiens, UniProt Q08499); test: PDE4 assay (SPA, cleavage of cAMP); assay type: biochemical; conditions: 1 hour incubation, test compound up to 10 μM, cAMP 1×10^−5M, read-out: PDE4 IC50 range
Protocol: Human recombinant PDE4 (Genbank accession no NM_006203) was incubated for 1 hour with the test compound at concentrations up to 10 μM, with cAMP (1×10^−5M), and with a low amount (0.021 MBq) of radioactively labelled cAMP. At the end of the incubation, the cleavage of the substrate was evaluated by the binding of the AMP product to SPA beads, which generate chemoluminescence when bound to the radioactive tracer. The AMP product inhibited the binding of the radioactive tracer to the beads, and the luminescent signal was competed.
The results were calculated as the molar concentrations resulting in 50% inhibition of the substrate cleavage compared to controls samples, and are expressed as a range of IC50 (M).
The compounds of the present invention were tested in the PDE4 assay.

Human recombinant PDE4 (Genbank accession no NM—006203), sequence (Q08499 1-673 isoform Q08499-2): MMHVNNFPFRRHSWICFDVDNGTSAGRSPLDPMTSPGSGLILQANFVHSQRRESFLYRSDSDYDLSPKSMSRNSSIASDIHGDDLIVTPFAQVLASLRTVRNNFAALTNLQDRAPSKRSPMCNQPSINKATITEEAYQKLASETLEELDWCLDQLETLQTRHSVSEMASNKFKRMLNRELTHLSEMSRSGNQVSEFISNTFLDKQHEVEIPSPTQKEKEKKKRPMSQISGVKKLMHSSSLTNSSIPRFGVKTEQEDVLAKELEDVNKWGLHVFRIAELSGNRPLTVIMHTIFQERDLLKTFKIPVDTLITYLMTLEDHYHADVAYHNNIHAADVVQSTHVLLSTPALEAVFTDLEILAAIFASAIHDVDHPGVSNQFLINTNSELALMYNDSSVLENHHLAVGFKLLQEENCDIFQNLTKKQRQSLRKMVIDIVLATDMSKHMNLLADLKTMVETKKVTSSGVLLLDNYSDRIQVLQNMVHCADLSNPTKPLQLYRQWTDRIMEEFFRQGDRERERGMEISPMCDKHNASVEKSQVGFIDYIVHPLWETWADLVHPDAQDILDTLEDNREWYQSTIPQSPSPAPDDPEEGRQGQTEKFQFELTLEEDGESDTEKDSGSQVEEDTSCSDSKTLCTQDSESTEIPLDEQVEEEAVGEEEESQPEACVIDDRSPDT

| IC50 | SMILES |
| --- | --- |
| < 100 nM | COc1ccc(-c2ccc3c(c2)CNC3=O)c(OCc2cccc(S(N)(=O)=O)c2)c1OC [Compound 158, 3-[2,3-Dimethoxy-6-(1-oxo-2,3-dihydro-1H-isoindol-5-yl)-phenoxymethyl]-benzenesulfonamide] |
| < 100 nM | COc1ccc(-c2cccc3c2CCC3=O)c(OCc2ccc(C(N)=O)cc2)c1OC [Compound 106, 4-[2,3-Dimethoxy-6-(1-oxo-indan-4-yl)-phenoxymethyl]-benzamide] |
| < 100 nM | CCNC(=O)OCC1(COc2c(-c3cccc4c3CCC4=O)ccc(OC)c2OC)CC1 [Compound 179, Ethyl-carbamic acid 1-[2,3-dimethoxy-6-(1-oxo-indan-4-yl)-phenoxymethyl]-cyclopropylmethyl ester] |
| ≥ 500 nM | CCNC(=O)OCC(C)(C)COc1c(-c2ccc3c(c2)CNC3=O)ccc(OC)c1OC [Compound 212, Ethyl-carbamic acid 3-[2,3-dimethoxy-6-(1-oxo-2,3-dihydro-1H-isoindol-5-yl)-phenoxy]-2,2-dimethyl-propyl ester] |
| < 100 nM | COc1ccc(-c2ccc3c(c2)CNC3=O)c(OCC(C)(C)CO)c1OC [Compound 154, 5-[2-(3-Hydroxy-2,2-dimethyl-propoxy)-3,4-dimethoxy-phenyl]-2,3-dihydro-isoindol-1-one] |
| < 100 nM | COCCOC(=O)NCC1(COc2c(-c3cccc4c3CCC4=O)ccc(OC)c2OC)COC1 [Compound 198, {3-[2,3-Dimethoxy-6-(1-oxo-indan-4-yl)-phenoxymethyl]-oxetan-3-ylmethyl}-carbamic acid 2-methoxy-ethyl ester] |
| < 100 nM | COc1ccc(-c2ccc3c(c2)CNC3=O)c(OCc2cccc(C(=O)N(C)C)c2)c1OC [Compound 157, 3-[2,3-Dimethoxy-6-(1-oxo-2,3-dihydro-1H-isoindol-5-yl)-phenoxymethyl]-N,N-dimethyl-benzamide] |
| < 100 nM | COc1ccc(-c2cccc3c2CCC3=O)c(OCc2ccc(C(=O)N(C)C)cc2)c1OC [Compound 109, 4-[2,3-Dimethoxy-6-(1-oxo-indan-4-yl)-phenoxymethyl]-N,N-dimethyl-benzamide] |
| < 100 nM | COCC1(COc2c(-c3ccc4c(c3)COC4=O)ccc(OC)c2OC)COC1 [Compound 215, 5-[3,4-Dimethoxy-2-(3-methoxymethyl-oxetan-3-ylmethoxy)-phenyl]-3H-isobenzofuran-1-one] |
| < 100 nM | COc1ccc(-c2ccc3c(c2)COC3=O)c(OCC(C)(C)C)c1OC [Compound 132, 5-[2-(2,2-Dimethyl-propoxy)-3,4-dimethoxy-phenyl]-3H-isobenzofuran-1-one] |
| < 100 nM | COc1ccc(-c2cccc3c2CCC3=O)c(OCC(C)(C)CO)c1OC [Compound 107, 4-[2-(3-Hydroxy-2,2-dimethyl-propoxy)-3,4-dimethoxy-phenyl]-indan-1-one] |
| < 100 nM | CCNC(=O)OCC1(COc2c(-c3cccc4c3CCC4=O)ccc(OC)c2OC)COC1 [Compound 189, Ethyl-carbamic acid 3-[2,3-dimethoxy-6-(1-oxo-indan-4-yl)-phenoxymethyl]-oxetan-3-ylmethyl ester] |
| < 100 nM | COc1ccc(-c2ccc3c(c2)CCC3=O)c(OCc2ccc(C(N)=O)cc2)c1OC [Compound 124, 4-[2,3-Dimethoxy-6-(1-oxo-indan-5-yl)-phenoxymethyl]-benzamide] |
| < 100 nM | COc1ccc(-c2cccc3c2CCC3=O)c(OCC2(CO)COC2)c1OC [Compound 104, 4-[2-(3-Hydroxymethyl-oxetan-3-ylmethoxy)-3,4-dimethoxy-phenyl]-indan-1-one] |
| < 100 nM | CCCC(=O)NCC1(COc2c(-c3cccc4c3CCC4=O)ccc(OC)c2OC)COC1 [Compound 194, N-{3-[2,3-Dimethoxy-6-(1-oxo-indan-4-yl)-phenoxymethyl]-oxetan-3-ylmethyl}-butyramide] |
| < 100 nM | COc1ccc(-c2cccc3c2COC3=O)c(OCc2ccc(C(=O)N(C)C)cc2)c1OC [Compound 118, 4-[2,3-Dimethoxy-6-(1-oxo-1,3-dihydro-isobenzofuran-4-yl)-phenoxymethyl]-N,N-dimethyl-benzamide] |
| < 100 nM | COc1ccc(-c2cccc3c2COC3=O)c(OCc2ccc(S(C)(=O)=O)cc2)c1OC [Compound 115, 4-[2-(4-Methanesulfonyl-benzyloxy)-3,4-dimethoxy-phenyl]-3H-isobenzofuran-1-one] |
| < 100 nM | COc1ccc(-c2cccc3c2CCC3=O)c(OCC2(CNC(C)=O)CC2)c1OC [Compound 185, N-{1-[2,3-Dimethoxy-6-(1-oxo-indan-4-yl)-phenoxymethyl]-cyclopropylmethyl}-acetamide] |
| < 100 nM | COc1ccc(-c2cccc3c2CCC3=O)c(OCC2(CNC(=O)C(C)C)CC2)c1OC [Compound 183] |
| < 100 nM | CCOC(=O)NCC1(COc2c(-c3cccc4c3CCC4=O)ccc(OC)c2OC)CC1 [Compound 186, {1-[2,3-Dimethoxy-6-(1-oxo-indan-4-yl)-phenoxymethyl]-cyclopropylmethyl}-carbamic Acid Ethyl Ester] |
| 100 to 500 nM | COc1ccc(-c2ccc3c(c2)CCC3=O)c(OCC2(CO)COC2)c1OC [Compound 129, 5-[2-(3-Hydroxymethyl-oxetan-3-ylmethoxy)-3,4-dimethoxy-phenyl]-indan-1-one] |
| < 100 nM | CCNC(=O)OCC(C)(C)COc1c(-c2ccc3c(c2)COC3=O)ccc(OC)c1OC [Compound 210, Ethyl-carbamic acid 3-[2,3-dimethoxy-6-(1-oxo-1,3-dihydro-isobenzofuran-5-yl)-phenoxy]-2,2-dimethyl-propyl Ester] |
| < 100 nM | COc1ccc(-c2ccc3c(c2)CCC3=O)c(OCc2ccc(S(C)(=O)=O)cc2)c1OC [Compound 130, 5-[2-(4-Methanesulfonyl-benzyloxy)-3,4-dimethoxy-phenyl]-indan-1-one] |
| < 100 nM | COc1ccc(-c2cccc3c2CCC3=O)c(OCc2ccc(S(C)(=O)=O)cc2)c1OC [Compound 103, 4-[2-(4-Methanesulfonyl-benzyloxy)-3,4-dimethoxy-phenyl]-indan-1-one] |
| < 100 nM | CNC(=O)c1ccc(COc2c(-c3cccc4c3CCC4=O)ccc(OC)c2OC)cc1 [Compound 108, 4-[2,3-Dimethoxy-6-(1-oxo-indan-4-yl)-phenoxymethyl]-N-methyl-benzamide] |
| < 100 nM | COc1ccc(-c2cccc3c2CCC3=O)c(OCC2(C)COC2)c1OC [Compound 163, 4-[3,4-Dimethoxy-2-(3-methyl-oxetan-3-ylmethoxy)-phenyl]-indan-1-one] |
| < 100 nM | CCCC(=O)NCC1(COc2c(-c3cccc4c3CCC4=O)ccc(OC)c2OC)CC1 [Compound 184, N-{1-[2,3-Dimethoxy-6-(1-oxo-indan-4-yl)-phenoxymethyl]-cyclopropylmethyl}-butyramide] |
| < 100 nM | COCCOC(=O)NCC1(COc2c(-c3cccc4c3CCC4=O)ccc(OC)c2OC)CC1 [Compound 188, {1-[2,3-Dimethoxy-6-(1-oxo-indan-4-yl)-phenoxymethyl]-cyclopropylmethyl}-carbamic acid 2-methoxy-ethyl Ester] |
| < 100 nM | COc1ccc(-c2ccc3c(c2)COC3=O)c(OCc2cccc(S(=O)(=O)N(C)C)c2)c1OC [Compound 145, 3-[2,3-Dimethoxy-6-(1-oxo-1,3-dihydro-isobenzofuran-5-yl)-phenoxymethyl]-N,N-dimethyl-benzenesulfonamide] |

| SMILES | IC50 |
| --- | --- |
| COc1ccc(-c2ccc3c(c2)C(C)N(C)C3=O)c(OCC(C)C)c1OC (stereo not shown) [Compound 171, 5-(2-Isobutoxy-3,4-dimethoxy-phenyl)-2,3-dimethyl-2,3-dihydro-isoindol-1-one] | ≥ 500 nM |
| COc1ccc(-c2cccc3c2CCC3=O)c(OCCC(C)(C)C)c1OC [Compound 105, 4-[2-(3,3-Dimethyl-butoxy)-3,4-dimethoxy-phenyl]-indan-1-one] | < 100 nM |
| COc1ccc(-c2ccc3c(c2)CN(C)C3=O)c(OCC(C)C)c1OC [Compound 172, 5-(2-Isobutoxy-3,4-dimethoxy-phenyl)-2-methyl-2,3-dihydro-isoindol-1-one] | ≥ 500 nM |
| COc1ccc(-c2ccc(OC)c3c2CCC3=O)c(OCC(C)C)c1OC [Compound 168, 4-(2-Isobutoxy-3,4-dimethoxy-phenyl)-7-methoxy-indan-1-one] | ≥ 500 nM |
| COc1ccc(-c2cccc3c2CCC3=O)c(OCCC(C)C)c1OC [Compound 101, 4-[3,4-Dimethoxy-2-(3-methyl-butoxy)-phenyl]-indan-1-one] | < 100 nM |
| COc1ccc(-c2cccc3c2CCC3=O)c(OCC(C)C)c1OC [Compound 166, 4-(2-Isobutoxy-3,4-dimethoxy-phenyl)-indan-1-one] | < 100 nM |
| COc1ccc(-c2cccc3c2CNC3=O)c(OCC(C)C)c1OC [Compound 173, 4-(2-Isobutoxy-3,4-dimethoxy-phenyl)-2,3-dihydro-isoindol-1-one] | 100 to 500 nM |
| COc1ccc(-c2ccc3c(c2)OCC3=O)c(OCC(C)C)c1OC [Compound 176, 6-(2-Isobutoxy-3,4-dimethoxy-phenyl)-benzofuran-3-one] | 100 to 500 nM |
| COc1ccc(-c2ccc3c(c2)CCC3=O)c(OCCC(C)C)c1OC [Compound 120, 5-[3,4-Dimethoxy-2-(3-methyl-butoxy)-phenyl]-indan-1-one] | < 100 nM |
| COc1ccc(-c2ccc3c(c2)COC3=O)c(OCCC(C)C)c1OC [Compound 131, 5-[3,4-Dimethoxy-2-(3-methyl-butoxy)-phenyl]-3H-isobenzofuran-1-one] | < 100 nM |
| COc1ccc(-c2ccc3c(c2)CCC3=O)c(OCC(C)C)c1OC [Compound 169, 5-(2-Isobutoxy-3,4-dimethoxy-phenyl)-indan-1-one] | < 100 nM |

Source: patent US9051290B2, “Biaryl phosphodiesterase inhibitors” (LEO PHARMA A/S, priority 2010, dated 2015)
